We go through 1 compound from US20190142835A1, “INHIBITION OF AUTOPHAGY USING PHOSPHOLIPASE A2 INHIBITORS” (OREGON HEALTH & SCIENCE UNIVERSITY, priority 2017, published 2019).

The test system of test [1] is ACHN cells. Kind of test: Lipid droplet staining (Bodipy 493/503), ACHN. Conditions: 24 hrs; p<0.001 vs control. Type of test: cell-based, human. The protocol:
(§1) Cells were grown on coverslips then treated with drug for 24 hours. Cells were fixed in 4% paraformaldehyde for 15 min, rinsed with PBS. Cells were washed with a 1% saponin solution for 15 min at room temperature then washed several times in PBS to remove detergent. Cells were then incubated in Bodipy (ThermoFisher #D3922) at a final concentration of 1 uM for 10 min. Bodipy was removed and slides were rinsed with PBS then air dried and mounted on slides using Dako mounting media with Dapi.

Test [2] has as its system ACHN cells. Kind of test: Redox homeostasis (p-AMPK, NADPH, GSSG/GSH, ROS). As to conditions: 2 μM CYT387, 10 μM MK2206, 24 hr. Type of test: cell-based, human. The protocol:
ROS levels were measured with Cellrox Deep Red (Molecular Probes). Cell were plated in a 96 well clear bottom with black sides cell culture plate. […] The complete media+drug was removed after 24 hours and replaced with 5 μM of Cellrox Deep Red in media. Cells were incubated for 30 min at 370 C then washed with PBS. Fluorescence signal was detected using a Bioteck Cytation 5 plate reader. Data was analyzed using Prism software.

In test [3] the test system is mouse embryo fibroblasts (MEFs) Atg5+/+. Kind of test: Autophagy induction (lipidation of LC3) in Atg5+/+ MEFs. Type of test: cell-based.
The test system of test [4] is ACHN cells. Kind of test: Apoptosis (Caspase 3/7-Glo), ACHN. It counts as cell-based, human. Conditions: ACHN, 72 h. The protocol:
Apoptosis was determined using Caspase 3/7-Glo assay kit (Promega) following the manufacturer's instructions. Briefly, 2000 cells per well were plated in 96 well plates and cultured for 72 h. […] Caspase 3/7 activity was measured using a luminometer. Luminescence values were normalized by cell numbers.

The subject of test [5] is Atg5−/− murine embryonic fibroblasts. Kind of test: Lipid droplet number in Atg5−/− MEFs. It counts as cell-based, mouse. Conditions: ATG5 deficient, 24 hr. The protocol: as §1
The subject of test [6] is PI3K, mTORC1 and mTORC2 signaling. Kind of test: Western blotting of PI3K-AKT-mTOR signaling. Type of test: cell-based, human. The protocol:
Cells were plated in 6 well dishes and treated the following day with the indicated agents. Treatments were for 24 hours, after which cells were washed with ice cold PBS and lysed with RIPA buffer (Sigma). Phosphatase inhibitor cocktail set II and protease inhibitor cocktail set III (EMD Millipore) were added at the time of lysis. Lysates were centrifuged at 15,000 g×10 min at 4 degrees C. Protein concentrations were calculated based on a BCA assay (Thermo Scientific) generated standard curve. Proteins were resolved using the NuPAGE Novex Mini Gel system on 4% to 12% Bis-Tris Gels (Invitrogen). For western blotting, equal amounts of cell lysates (15-20 μg of protein) were resolved with SDSPAGE, and transferred to membranes. The membrane was probed with primary antibodies, washed, and then incubated with corresponding fluorescent secondary antibodies and washed. The fluorescent signal was captured using LI-COR (Lincoln, Nebr.) Odyssey Imaging System, and fluorescent intensity was quantified using the Odyssey software where indicated. The following antibodies were used for Western blots: p-S6 (S240/244), S6, LC3B, p-Akt(S473), p-Akt(T308), Akt, cleaved caspase3 (Cell Signaling Technologies). p-Stat3 (Y705), Stat3 and β-actin (AC15) (Abcam). Ki67 (Dako) and cleaved caspase3 (Cell Signaling Technologies) were used for immunohistochemistry. […] BX795 and GDC0941 were purchased from Sigma.

As to `N#CCNC(=O)c1ccc(-c2ccnc(Nc3ccc(N4CCOCC4)cc3)n2)cc1` [CYT387], in the test with ACHN cells [1], the “number of lipid droplets” value was “increase in the number of lipid droplets” and the “size of lipid droplets” value is listed as “increase in the size of lipid droplets”. Also, in the test on ACHN cells [2], the NADPH levels entry is on record as “increases NADPH levels”, the ROS result is on record as “mitigates ROS” and the p-AMPK result is listed as “activates p-AMPK”. Also, the “autophagy as seen by the lipidation of LC3” value in test [3] is listed as “induce autophagy in a dose dependent manner”. For the same compound, the “apoptosis (cleaved-caspase 3/7)” value in the test with ACHN cells [4] is recorded as “little or no effect on apoptosis”. Besides, the lipid droplets result in test [5] is reported as “no increase in lipid droplets”. In addition, in test [6], the “phosphorylation of ERK 1/2” value is reported as “no effect on the phosphorylation of ERK 1/2”. Further, the “AKT T308 phosphorylation (readout for PI3K signaling)” value in test [6] (time-dependent) is reported as “increase in AKT T308”.
